Measured values taken from paper PMC5840523, “Assessment of a pretomanid analogue library for African trypanosomiasis: Hit-to-lead studies on 6-substituted 2-nitro-6,7-dihydro-5H-imidazo[2,1-b][1,3]thiazine 8-oxides” (Bioorganic & Medicinal Chemistry Letters, 2018).
In brackets after ≈: the same amount, converted by molar mass. Read-outs that look alike come from different tables or passages of the source.

Tests used:
in vitro = details: dog, MDCK-MDR1, Permeability Papp
[1] = tested on: human lung fibroblasts (MRC-5 cells); test: Cytotoxicity toward MRC-5 cells (University of Antwerp); format: cell-based; details: Homo sapiens, MRC5, cytotoxicity toward human lung fibroblasts
[2] = Mouse pharmacokinetics (plasma, whole blood, brain); format: in vivo, male CD-1 mice; details: male, CD-1, mouse; for bioavailability: po; for Vd: read-out: Vdss; for half-life: read-out: t1/2 (converted)
Experimental: In order to determine the suitability of the more permeable hits for in vivo efficacy studies, we first measured their aqueous solubilities, and their tendencies to metabolise, following a 1 h incubation with CD-1 mouse liver S9 subcellular fractions.[14] […] This led us to probe their in vivo pharmacokinetic (PK) profiles in mice, examining concentration levels in plasma, whole blood and brain tissue following both intravenous and oral administration (Table 2; for further experimental details, see the Supporting Information). […]
Mouse Pharmacokinetics. The in-life portion of PK testing was carried out by ViviSource Laboratories, Inc., Mass achusetts, USA, and PK samples were anal ysed by Sc ynexis, Inc.
Test compounds (9, 12, 17, and 19) w er e each administered as single doses to groups of 10 male CD-1 mice by bolus intravenous injection or oral gavage. Intravenous dosing (at a nominal dose of 2 mg/kg) emplo yed a solution vehicle comprising either 20% EtOH, 20% propylene gl ycol, and 30% PEG -400 in normal saline (for powders 9, 17, and 19) or 0.5% (hydrox yprop yl)meth ylcellulose, 0.4% Tween 80, 0.5% benz yl alcohol, and 20% DMSO i n deionised water (for oil 12). […]
in 0.5% methylcellulose, 0.08% Tween 80 in water ( ex cept fo r oil 12, where the formulation additionally contained 20% DMSO). […]

Leishmania infantum = test: L. infantum growth inhibition (University of Antwerp); format: cell-based; details: mean of 2 to 5 determinations
T. b. rhodesiense = T. b. rhodesiense growth inhibition (University of Antwerp); format: cell-based, Trypanosoma brucei rhodesiense; details: mean of 2 to 5 determinations, read-out: IC50 T. b. rhod
[3] = Kinetic aqueous solubility in pH 7.4 PBS; format: physicochemical
Excerpt: Table 1 Inhibitory potency, metabolic stability, aqueous solubility, and MDCK-MDR1 cell permeability for 15 screening hits against T. b. brucei. | column: Solubility ^c / (µg/mL)

T. b. brucei 427 [4] = test: T. b. brucei 427 growth inhibition (Scynexis); format: cell-based, Trypanosoma brucei brucei; details: for Selectivity Index: L929 vs T. b. brucei; for IC50: Trypanosoma brucei, growth inhibition of T. b. brucei 427, mean ± SD
T. b. brucei 427 [5] = test: T. b. brucei growth inhibition (University of Antwerp); format: cell-based, Trypanosoma brucei brucei; details: T. b. brucei 427, mean of 2 to 5 determinations, read-out: IC50 T. b. bruc
Mouse liver S9 stability = format: in vitro ADME; details: CD-1, mouse, mouse liver S9 subcellular fraction, half-life in mouse liver S9 fraction; read-out: Mouse S9 t1/2
Trypanosoma cruzi = test: T. cruzi growth inhibition (University of Antwerp); format: cell-based; details: mean of 2 to 5 determinations
L929 mouse fibroblasts = test: Cytotoxicity toward L929 mouse fibroblasts (Scynexis); format: cell-based
MDCK-MDR1 cell monolayer = details: dog, MDCK-MDR1, 1 h, 3 µM
[6] = brain, from dose normalised AUClast values, read-out: F (oral bioavailability)
[7] = over the three sampling sites (plasma, whole blood, brain), read-out: oral bioavailability
[8] = whole blood, from dose normalised AUClast values, read-out: F (oral bioavailability)
[9] = brain, intravenous, corrected doses 0.5, 1.1, 2.9, 2.0 mg/kg for 9, 12, 17, 19
[10] = brain, oral, corrected doses 62, 50, 78, 49 mg/kg for 9, 12, 17, 19
[11] = plasma, intravenous, corrected doses 0.5, 1.1, 2.9, 2.0 mg/kg for 9, 12, 17, 19
[12] = plasma, oral, corrected doses 62, 50, 78, 49 mg/kg for 9, 12, 17, 19
[13] = whole blood, intravenous, corrected doses 0.5, 1.1, 2.9, 2.0 mg/kg for 9, 12, 17, 19
[14] = whole blood, oral, corrected doses 62, 50, 78, 49 mg/kg for 9, 12, 17, 19
[15] = Trypanosoma brucei, RHODESIENSE

| SMILES | Papp at 1 h, 3 µM (in vitro) [×10⁻⁶ cm/s] | IC50 [1] [nM] | bioavailability [2, 6] [%] | bioavailability [2, 7] [%] | bioavailability [2, 8] [%] | AUC(0-t) [2, 9] [ng·h/mL] | clearance [2, 9] [mL/min/kg] | Vd [2, 9] [L/kg] | half-life [2, 9] [h] | AUC(0-t) [2, 10] [ng·h/mL] | Cmax [2, 10] [ng/mL] | Tmax [2, 10] [h] | half-life [2, 10] [h] | AUC(0-t) [2, 11] [ng·h/mL] | clearance [2, 11] [mL/min/kg] | Vd [2, 11] [L/kg] | half-life [2, 11] [h] | Selectivity Index (T. b. brucei 427 [4]) | IC50 (T. b. brucei 427 [4]) [µg/mL] | IC50 (L929 mouse fibroblasts) [µg/mL] | also measured |
| --- | --- | --- | --- | --- | --- | --- | --- | --- | --- | --- | --- | --- | --- | --- | --- | --- | --- | --- | --- | --- | --- |
| O=[N+]([O-])c1cn2c(n1)[S+]([O-])CC(OCc1ccc(OCc3ccccc3)cc1)C2 (centres unmarked) [Compound 9] | 77.1 | 64000 | 0.8 | < 1.5 | 0.8 | 304 | 25 | 1.2 | 1.6 | 290 | 60 | 2 | 3.2 | 505 | 16.2 | 0.59 | 0.43 | >667 | 0.015 ± 0.005 (≈ 0.0363 µM) | > 10 | bioavailability ([2]; 0.5 mg/kg, plasma, from dose normalised AUClast values, read-out: F (oral bioavailability)): 1.4%; AUC(0-t) [2, 12]: 869 ng·h/mL; Cmax [2, 12]: 200 ng/mL; Tmax [2, 12]: 2 h; half-life [2, 12]: 3.7 h; AUC(0-t) [2, 13]: 489 ng·h/mL; clearance [2, 13]: 14.5 mL/min/kg; Vd [2, 13]: 0.33 L/kg; half-life [2, 13]: 0.42 h; AUC(0-t) [2, 14]: 494 ng·h/mL; Cmax [2, 14]: 110 ng/mL; Tmax [2, 14]: 2 h; half-life [2, 14]: 5.3 h; IC50 (Leishmania infantum; Leishmania infantum): 3400 nM; IC50 (T. b. rhodesiense; [15]): 27 nM; solubility [3]: 5.4 µg/mL (≈ 13.1 µM); IC50 (T. b. brucei 427 [5]; Trypanosoma brucei): 30 nM; half-life (Mouse liver S9 stability): 2.88 h; IC50 (Trypanosoma cruzi; Trypanosoma cruzi): 120 nM |
| O=[N+]([O-])c1cn2c(n1)S(=O)(=O)CC(OCc1ccc(OCc3ccccc3)cc1)C2 (centres unmarked) [Compound 10] |  | > 64000 |  |  |  |  |  |  |  |  |  |  |  |  |  |  |  | >303 | 0.033 ± 0.018 (≈ 0.0768 µM) | > 10 | IC50 (Leishmania infantum; Leishmania infantum): 7300 nM; IC50 (T. b. rhodesiense; [15]): 27 nM; absolute AQ (MDCK-MDR1 cell monolayer): ≥ 0.3; IC50 (T. b. brucei 427 [5]; Trypanosoma brucei): 97 nM; IC50 (Trypanosoma cruzi; Trypanosoma cruzi): 350 nM |
| O=[N+]([O-])c1cn2c(n1)[S+]([O-])CC(OCc1ccc(OC(F)(F)F)cc1)C2 (centres unmarked) [Compound 12] | 79.8 | 60000 | 55 | 52 to 55 | 52 | 2850 | 6.67 | 1.3 | 2.3 | 71200 | 14000 | 4 | 6.9 | 2090 | 8.67 | 1.6 | 2.5 | >63 | 0.16 ± 0.07 (≈ 0.409 µM) | > 10 | bioavailability ([2]; plasma, from dose normalised AUClast values, read-out: F (oral bioavailability)): 55%; AUC(0-t) [2, 12]: 51900 ng·h/mL; Cmax [2, 12]: 9300 ng/mL; Tmax [2, 12]: 4 h; half-life [2, 12]: 6.9 h; AUC(0-t) [2, 13]: 2700 ng·h/mL; clearance [2, 13]: 6.5 mL/min/kg; Vd [2, 13]: 1.7 L/kg; half-life [2, 13]: 9.3 h; AUC(0-t) [2, 14]: 63500 ng·h/mL; Cmax [2, 14]: 8600 ng/mL; Tmax [2, 14]: 4 h; half-life [2, 14]: 5.8 h; IC50 (Leishmania infantum): 16000 nM; IC50 (T. b. rhodesiense): 250 nM; solubility [3]: 39 µg/mL (≈ 99.7 µM); IC50 (T. b. brucei 427 [5]): 270 nM; half-life (Mouse liver S9 stability): > 5.83 h; IC50 (Trypanosoma cruzi): 1500 nM |
| O=[N+]([O-])c1cn2c(n1)OC[C@@H](OCCCc1ccc(-c3ccc(Oc4ccc(C(F)(F)F)cc4)cc3)cc1)C2 [Compound 13] | < 0.08 |  |  |  |  |  |  |  |  |  |  |  |  |  |  |  |  | >43 | 0.23 ± 0.04 (≈ 0.426 µM) | > 10 | Permeability Papp (MDCK-MDR1 cell monolayer): <0.08 ×10⁻⁶ cm/s |
| O=[N+]([O-])c1cn2c(n1)OCC(COc1ccc(-c3ccc(C(F)(F)F)cc3)nc1)C2 (centres unmarked) [Compound 14] | < 15 |  |  |  |  |  |  |  |  |  |  |  |  |  |  |  |  | >36 | 0.28 ± 0.11 (≈ 0.666 µM) | > 10 | Permeability Papp (MDCK-MDR1 cell monolayer): 11.7 ×10⁻⁶ cm/s; absolute AQ (MDCK-MDR1 cell monolayer): ≥ 0.3 |
